Key:
[1] = system: T-Rex 293 cell line SC3 cells lacking increased expression of androgen receptor protein; assay: Cellular growth inhibition, T-Rex 293 SC3 cells without doxycycline (CellTiter-Glo 2.0, 72 hours); format: cell-based; settings: T-Rex 293 SC3 cells not exposed to doxycycline (no increased androgen receptor expression)
VCaP cells = assay: Cellular growth inhibition assay for VCaP cells (CellTiter-Glo 2.0, 72 hours); format: cell-based, human; settings: CellTiter-Glo 2.0
[2] = system: T-Rex 293 cell line SC3 cells having increased expression of androgen receptor protein due to exposure to doxycycline; assay: Cellular growth inhibition, T-Rex 293 SC3 cells with doxycycline-induced androgen receptor (CellTiter-Glo 2.0, 72 hours); format: cell-based; settings: T-Rex 293 SC3 cells with 10 ng/ml doxycycline (increased androgen receptor expression), 72 hours, CellTiter-Glo 2.0

Measured: GI50

COC[C@@H]1N=C(c2ccc(C#CC3CC4(C3)CN(c3ccc(C(=O)N[C@H]5CC[C@H](Oc6ccc(C#N)c(OC)c6)CC5)nn3)C4)cc2)c2c(sc(C)c2C)-n2c(C)nnc21 [Compound I-32, N-[4-(4-cyano-3-methoxy-phenoxy)cyclohexyl]-6-[6-[2-[4-[(9R)-9-(methoxymethyl)-4,5,13-trimethyl-3-thia-1,8,11,12-tetrazatricyclo[8.3.0.0^2,6]trideca-2 (6),4,7,10,12-pentaen-7-yl]phenyl]ethynyl]-2-azaspiro[3.3]heptan-2-yl]pyridazine-3-carboxamide]
< 500 nM: [1]; 72 h | VCaP cells; Homo sapiens, VCaP, 72 h | [2]

COCC[C@@H]1N=C(c2ccc(C#CC3CC4(C3)CN(c3ccc(C(=O)N[C@H]5CC[C@H](Oc6ccc(C#N)c(OC(F)(F)F)c6)CC5)nn3)C4)cc2)c2c(sc(C)c2C)-n2c(C)nnc21 [Compound I-33]
< 500 nM: [1] | VCaP cells; 72 hours | [2]

COc1cc(O[C@H]2CC[C@H](NC(=O)c3cnc(N4CCC5(CCC(c6ccc(C7=N[C@@H](C)c8nnc(C)n8-c8sc(C)c(C)c87)cc6)CC5)C4)nc3)CC2)ccc1C#N (stereo partly drawn) [Compound I-35]
< 500 nM: [1]; 72 h | VCaP cells; Homo sapiens, VCaP, 72 h | [2]

COc1cc(O[C@H]2CC[C@H](NC(=O)c3ccc(N4CCC5(CCC(c6ccc(C7=N[C@@H](C)c8nnc(C)n8-c8sc(C)c(C)c87)cc6)CC5)C4)nc3)CC2)ccc1C#N (stereo partly drawn) [Compound I-36]
< 500 nM: [1]; 72 h | VCaP cells; Homo sapiens, VCaP, 72 h | [2]

COc1cc(O[C@H]2CC[C@H](NC(=O)c3cnc(N4CCC5(CCN(c6ccc(C7=N[C@@H](C)c8nnc(C)n8-c8sc(C)c(C)c87)cc6)CC5)C4)nc3)CC2)ccc1C#N [Compound I-37, N-((1r,4r)-4-(4-cyano-3-methoxyphenoxy)cyclohexyl)-2-(8-(4-((S)-2,3,6,9-tetramethyl-6H-thieno[3,2-f][1,2,4]triazolo[4,3-a][1,4]diazepin-4-yl)phenyl)-2,8-diazaspiro[4.5]decan-2-yl)pyrimidine-5-carboxamide]
< 500 nM: [1]; 72 h | VCaP cells; Homo sapiens, VCaP, 72 h | [2]

COc1cc(O[C@H]2CC[C@H](NC(=O)c3ccc(N4CCC5(CCN(c6ccc(C7=N[C@@H](C)c8nnc(C)n8-c8sc(C)c(C)c87)cc6)CC5)C4)nc3)CC2)ccc1C#N [Compound I-38]
< 500 nM: [1]; 72 h | VCaP cells; Homo sapiens, VCaP, 72 h | [2]

COc1cc(O[C@H]2CC[C@H](NC(=O)c3cnc(N4CCC5(CCN(c6ccc(C7=N[C@@H](C)c8nnc(C)n8-c8sc(C)c(C)c87)cc6)CC5)C4)cn3)CC2)ccc1C#N [Compound I-39, N-((1r,4r)-4-(4-cyano-3-methoxyphenoxy)cyclohexyl)-5-(8-(4-((S)-2,3,6,9-tetramethyl-6H-thieno[3,2-f][1,2,4]triazolo[4,3-a][1,4]diazepin-4-yl)phenyl)-2,8-diazaspiro[4.5]decan-2-yl) pyrazine-2-carboxamide]
< 500 nM: [1]; 72 h | VCaP cells; Homo sapiens, VCaP, 72 h | [2]

COc1cc(O[C@H]2CC[C@H](NC(=O)c3ccc(N4CC5(CC(C#Cc6ccc(C7=N[C@@H](C)c8nnc(C)n8-c8sc(C)c(C)c87)cc6)C5)C4)nn3)CC2)ccc1C#N [Compound I-40, N-[4-(4-cyano-3-methoxy-phenoxy)cyclohexyl]-6-[6-[2-[4-[(9S)-4,5,9,13-tetramethyl-3-thia-1,8,11,12-tetrazatricyclo[8.3.0.0^2,6]trideca-2 (6),4,7,10,12-pentaen-7-yl]phenyl]ethynyl]-2-azaspiro[3.3]heptan-2-yl]pyridazine-3-carboxamide]
< 500 nM: [1]; 72 h | VCaP cells; Homo sapiens, VCaP, 72 h | [2]

CC[C@@H]1N=C(c2ccc(C3CCC4(CC3)CCN(c3ccc(C(=O)NC5CCC(Oc6ccc(C#N)c(OC)c6)CC5)nn3)C4)cc2)c2c(sc(C)c2C)-n2c(C)nnc21 (stereo partly drawn) [Compound I-41, N-((1r,4r)-4-(4-cyano-3-methoxyphenoxy)cyclohexyl)-6-(8-(4-((S)-6-ethyl-2,3,9-trimethyl-6H-thieno[3,2-f][1,2,4]triazolo[4,3-a][1,4]diazepin-4-yl)phenyl)-2-azaspiro[4.5]decan-2-yl) pyridazine-3-carboxamide]
< 500 nM: [1] | VCaP cells; 72 hours | [2]

COc1cc(O[C@H]2CC[C@H](NC(=O)c3ccc(N4CCC5(CCN(c6ccc(C7=N[C@@H](C)c8nnc(C)n8-c8sc(C)c(C)c87)c(F)c6)CC5)C4)nn3)CC2)ccc1C#N [Compound I-45, N-[4-(4-cyano-3-methoxy-phenoxy)cyclohexyl]-6-[8-[3-fluoro-4-[(9S)-4,5,9,13-tetramethyl-3-thia-1,8,11,12-tetrazatricyclo[8.3.0.0^2,6]trideca-2 (6),4,7,10,12-pentaen-7-yl]phenyl]-2,8-diazaspiro[4.5]decan-2-yl]pyridazine-3-carboxamide]
< 500 nM: [1]; 72 h | VCaP cells; Homo sapiens, VCaP, 72 h | [2]

COc1cc(O[C@H]2CC[C@H](NC(=O)c3ccc(N4CCC5(CCN(c6ccc(C7=N[C@@H](C)c8nnc(C)n8-c8sc(C)c(C)c87)cc6C)CC5)C4)nn3)CC2)ccc1C#N [Compound I-46, N-[4-(4-cyano-3-methoxy-phenoxy)cyclohexyl]-6-[8-[2-methyl-4-[(9S)-4,5,9,13-tetramethyl-3-thia-1,8,11,12-tetrazatricyclo[8.3.0.0^2,6]trideca-2 (6),4,7,10,12-pentaen-7-yl]phenyl]-2,8-diazaspiro[4.5]decan-2-yl]pyridazine-3-carboxamide]
< 500 nM: [1]; 72 h | VCaP cells; Homo sapiens, VCaP, 72 h | [2]

COc1cc(O[C@H]2CC[C@H](NC(=O)c3ccc(N4C[C@H]5CN(c6ccc(C7=N[C@@H](C)c8nnc(C)n8-c8sc(C)c(C)c87)cc6)C[C@H]5C4)nn3)CC2)ccc1C#N [Compound I-47]
< 500 nM: [1]; 72 h | VCaP cells; Homo sapiens, VCaP, 72 h | [2]

COc1cc(O[C@H]2CC[C@H](NC(=O)c3ccc(N4C[C@]5(C)CN(c6ccc(C7=N[C@@H](C)c8nnc(C)n8-c8sc(C)c(C)c87)cc6)C[C@]5(C)C4)nn3)CC2)ccc1C#N [Compound I-48]
< 500 nM: [1]; 72 h | VCaP cells; Homo sapiens, VCaP, 72 h | [2]

COc1cc(O[C@H]2CC[C@H](NC(=O)c3ccc(N4CCC5(CCC(Oc6ccc(C7=N[C@@H](C)c8nnc(C)n8-c8sc(C)c(C)c87)cc6)C5)C4)nn3)CC2)ccc1C#N (stereo partly drawn) [Compound I-50]
< 500 nM: [1]; 72 h | VCaP cells; Homo sapiens, VCaP, 72 h | [2]

COc1cc(O[C@H]2CC[C@H](NC(=O)c3ccc(N4CCC5(CCC(Oc6ccc(C7=N[C@@H](C)c8nnc(C)n8-c8sc(C)c(C)c87)cc6)C5)C4)nn3)CC2)ccc1C#N (stereo partly drawn) [Compound I-51]
< 500 nM: [1] | VCaP cells; 72 hours | [2]

COc1cc(O[C@H]2CC[C@H](NC(=O)c3ccc(N4CCC5(CCC(Oc6ccc(C7=N[C@@H](C)c8nnc(C)n8-c8sc(C)c(C)c87)cc6)C5)C4)nn3)CC2)ccc1C#N (stereo partly drawn) [Compound I-52]
< 500 nM: [1] | VCaP cells; 72 hours | [2]

COc1cc(O[C@H]2CC[C@H](NC(=O)c3ccc(N4CCC5(CCC(c6ccc(C7=N[C@@H](C)c8nnc(C)n8-c8sc(C)c(C)c87)cc6)CC5)C4)cn3)CC2)ccc1C#N (stereo partly drawn) [Compound I-53]
< 500 nM: [1]; 72 h | VCaP cells; Homo sapiens, VCaP, 72 h | [2]

COc1cc(O[C@H]2CC[C@H](NC(=O)c3cnc(N4CCC5(CCC(c6ccc(C7=N[C@@H](C)c8nnc(C)n8-c8sc(C)c(C)c87)cc6)CC5)C4)cn3)CC2)ccc1C#N (stereo partly drawn) [Compound I-54, N-[4-(4-cyano-3-methoxy-phenoxy)cyclohexyl]-5-[8-[4-[(9S)-4,5,9,13-tetramethyl-3-thia-1,8,11,12-tetrazatricyclo[8.3.0.0^2,6]trideca-2 (6),4,7,10,12-pentaen-7-yl]phenyl]-2-azaspiro[4.5]decan-2-yl]pyrazine-2-carboxamide]
< 500 nM: [1]; 72 h | VCaP cells; Homo sapiens, VCaP, 72 h | [2]

COc1cc(O[C@H]2CC[C@H](NC(=O)c3ccc(N4CCC5(CCN(c6ccc(C7=N[C@@H](C)c8nnc(C)n8-c8sc(C)c(C)c87)cc6)CC5)C4)cc3)CC2)ccc1C#N [Compound I-55]
< 500 nM: [1]; 72 h | VCaP cells; Homo sapiens, VCaP, 72 h | [2]

COc1cc(O[C@H]2CC[C@H](NC(=O)c3ccc(N4CCC5(CCC(c6ccc(C7=N[C@@H](C)c8nnc(C)n8-c8sc(C)c(C)c87)c(F)c6)CC5)C4)nn3)CC2)ccc1C#N (stereo partly drawn) [Compound I-59]
< 500 nM: [1]; 72 h | VCaP cells; Homo sapiens, VCaP, 72 h | [2]

COc1cc(O[C@H]2CC[C@H](NC(=O)c3ccc(N4CCC5(CCC(c6ccc(C7=N[C@@H](C)c8nnc(C)n8-c8sc(C)c(C)c87)cc6C)CC5)C4)nn3)CC2)ccc1C#N (stereo partly drawn) [Compound I-60]
< 500 nM: [1]; 72 h | VCaP cells; Homo sapiens, VCaP, 72 h | [2]

COc1cc(O[C@H]2CC[C@H](NC(=O)c3ccc(N4CCC5(CCC(c6ccc(C7=N[C@@H](C)c8nnc(C)n8-c8sc(C)c(C)c87)cc6C)CC5)C4)nn3)CC2)ccc1C#N (stereo partly drawn) [Compound I-61]
< 500 nM: [1] | VCaP cells; 72 hours | [2]
